Where two headings read alike, the source gives them in different places.
Tested on: metastatic RCC patients
Format: in vivo, human
Conditions: for HR, overall survival, +CY vs −CY arm / HR (95% CI), overall survival, +CY vs −CY arm: IMA901-treated patients
Method: The IMA901-202 (phase II) study used univariate and multivariate analyses to identify parameters which alone or in combination serve as predictive biomarkers for the success in terms of immune response induction and prolongation of overall survival of IMA901 treatment of metastatic RCC patients.
To achieve this, around 450 parameters (patient- or tumor-related parameters as well as analytes measured in serum or urine and cellular parameters) were analyzed using pre-treatment samples of the IMA901-202 (phase II) study population. For multivariate analyses, which selected a set of several parameters, those parameters that required preparation of peripheral blood mononuclear cells (PBMCs) were not included in order to limit measurement costs in future trials. Parameters were analyzed for their association with overall survival and T-cell responses.
Thereby, the selection of purely prognostic markers, which by definition would show association with overall survival in both arms, was avoided.
All samples were collected before any therapeutic study intervention, either three days before vaccination and immediately before administration of cyclophosphamide in the +CY arm, or immediately before vaccination. Serum samples were taken using a serum/gel-[…] (Becton Dickinson, 5 ml), inverted and incubated for a minimum of 30 minutes. Tubes were centrifuged for 15 minutes at least 1200×g, and serum (approximately 2 ml) was transferred into a NUNC cryotube (3.6 ml). Cryotubes were stored immediately at <−20° C. until measurement. […] Urine was collected shortly before vaccination. For dipstick examination, only fresh urine was used. Citrated plasma for analysis of coagulation was collected approximately two weeks before vaccination. Samples were taken using a citrate-[…] and centrifuged within 30 minutes at least 1200×g at ambient temperature. Supernatant plasma was transferred into microtubes.
Biomarker measurement methods included ELISA, multiplex immunoassays, epigenetic assays, mass spectrometry, FACS analyses, routine clinical methods of haematology, clinical chemistry and urine analysis, and other methods.
The interaction of parameters with CY-pre-treatment was assessed using the Cox proportional hazards model. Candidates showing an interaction p value of <0.05 at any cutoff value that was not at the extreme ends of the distribution (i.e. selecting or de-selecting >˜5% of patients) were considered as interesting.
Moreover, to exclude parameters with significant interaction due to inverse association of cyclophosphamide pre-treatment with overall survival in the unfavorable biomarker group, an additional criterion was significant association (p<0.05) with overall survival in the positive biomarker group. A significant (p<0.05) association with overall survival in the +CY group, but not in the −CY group was considered to be an additional hint for the predictive instead of prognostic quality of a parameter.
Multivariate biomarkers were determined according to a Cox proportional hazard model, whose properties and extensions are described in the following.

O=P1(N(CCCl)CCCl)NCCCO1 (stereo not shown) [cyclophosphamide]
patients still alive at the end of the study (CCL17/TARC-positive cyclophosphamide-pre-treated patients, IMA901 treatment (FIG. 1D)): 75% | HR, interaction of biomarker with cyclophosphamide pre-treatment (overall survival) (biomarker ApoA1, cutoff 0.264 mg/ml): 0.43 | HR, interaction of biomarker with cyclophosphamide pre-treatment (overall survival) (biomarker CCL17/TARC, cutoff 161.99 pg/ml): 0.26 | HR, interaction of biomarker with cyclophosphamide pre-treatment (overall survival) (biomarker CXCL13/BCA-1, cutoff 64.21 pg/ml): 0.3271 | HR, interaction of biomarker with cyclophosphamide pre-treatment (overall survival) (biomarker monocytes, cutoff 7.7%): 0.22 | HR, overall survival, +CY vs −CY arm (biomarker-negative group, ApoA1, cutoff 0.264 mg/ml): 0.84 | HR, overall survival, +CY vs −CY arm (biomarker-negative group, CCL17/TARC, cutoff 161.99 pg/ml): 0.85 | HR, overall survival, +CY vs −CY arm (biomarker-negative group, CXCL13/BCA-1, cutoff 64.21 pg/ml): 1.07 | HR, overall survival, +CY vs −CY arm (biomarker-negative group, monocytes, cutoff 7.7%): 1.31 | HR (95% CI), overall survival, +CY vs −CY arm (biomarker-negative group, multivariate biomarker, cutoff 0.019076043 points): 2.5 (0.95-6.58); | HR, overall survival, +CY vs −CY arm (biomarker-positive group, ApoA1, cutoff 0.264 mg/ml): 0.36 | HR, overall survival, +CY vs −CY arm (biomarker-positive group, CCL17/TARC, cutoff 161.99 pg/ml): 0.22 | HR, overall survival, +CY vs −CY arm (biomarker-positive group, CXCL13/BCA-1, cutoff 64.21 pg/ml): 0.35 | HR, overall survival, +CY vs −CY arm (biomarker-positive group, monocytes, cutoff 7.7%): 0.29 | HR (95% CI), overall survival, +CY vs −CY arm (biomarker-positive group, multivariate biomarker, cutoff 0.019076043 points): 0.08 (0.02-0.38); | HR (95% CI), interaction of multivariate biomarker with cyclophosphamide pre-treatment (overall survival) (multivariate biomarker, cutoff 0.019076043 points): 0.032 (0.0055-0.1863);
